Measured values as given in patent US20030113704A1, “Methods for inactivation of pathogens in biological materials” (priority 2000, published 2003).

Columns and labels:
Staphylococcus aureus = test: Bacterial inactivation in leukoreduced PRBC with Erythrosol (Example 5), S. aureus; format: cell-based; settings: red cells, 0.2 mM compound, 2 mM glutathione, two hours at RT
[1] = test system: Staphylococcus epidermidis; test: Bacterial inactivation in leukoreduced PRBC with Erythrosol (Example 5), S. epidermidis; format: cell-based; settings: red cells, 0.2 mM compound, 2 mM glutathione, two hours at RT
[2] = test system: Herpes Simplex Virus (HSV); test: Viral inactivation in leukoreduced PRBC with Erythrosol (Example 5), HSV; format: cell-based; settings: red cells, 0.003 mM inactivation compound, 3 mM glutathione, two hours at RT
Cell-Associated HIV = test: Viral inactivation in leukoreduced PRBC with Erythrosol (Example 5), cell-associated HIV; format: cell-based, Human Immunodeficiency Virus; settings: red cells, 0.2 mM inactivation compound, 3 mM glutathione, two hours at RT
Deinococcus radiodurans = test: Bacterial inactivation in leukoreduced PRBC with Erythrosol (Example 5), D. radiodurans; format: cell-based; settings: red cells, 0.2 mM compound, 2 mM glutathione, two hours at RT
[3] = test system: Vesicular Stomatitis Virus type Indiana (VSIV); format: cell-based
Bluetongue type 11 Virus = test: Viral inactivation in leukoreduced PRBC with Erythrosol (Example 5), Bluetongue type 11; format: cell-based; settings: red cells, 0.2 mM inactivation compound, 2 mM glutathione, two hours at RT
Yersinia enterocolitica = test: Bacterial inactivation in leukoreduced PRBC with Erythrosol (Example 5), Y. enterocolitica; format: cell-based; settings: red cells, 0.2 mM compound, 2 mM glutathione, two hours at RT
Listeria monocytogenes = test: Bacterial inactivation in leukoreduced PRBC with Erythrosol (Example 5), L. monocytogenes; format: cell-based; settings: red cells, 0.2 mM compound, 2 mM glutathione, two hours at RT
Cell-Free HIV = test: Viral inactivation in leukoreduced PRBC with Erythrosol (Example 5), cell-free HIV; format: cell-based, Human Immunodeficiency Virus; settings: red cells, 0.2 mM inactivation compound, 3 mM glutathione, two hours at RT
Serratia marcescens = test: Bacterial inactivation in leukoreduced PRBC with Erythrosol (Example 5), S. marcescens; format: cell-based; settings: red cells, 0.2 mM compound, 2 mM glutathione, two hours at RT
Pseudomonas aeruginosa = test: Bacterial inactivation in leukoreduced PRBC with Erythrosol (Example 5), P. aeruginosa; format: cell-based; settings: red cells, 0.2 mM compound, 2 mM glutathione, two hours at RT
[4] = test system: Respiratory Synctial Virus (RSV); test: Viral inactivation in leukoreduced PRBC with Erythrosol (Example 5), RSV; format: cell-based; settings: red cells, 0.2 mM inactivation compound, 2 mM glutathione, two hours at RT
Escherichia coli K12 = test: Bacterial inactivation in leukoreduced PRBC with Erythrosol (Example 5), E. coli K12; format: cell-based; settings: red cells, 0.2 mM compound, 2 mM glutathione, two hours at RT
Salmonella choleraesuis = test: Bacterial inactivation in leukoreduced PRBC with Erythrosol (Example 5), S. choleraesuis; format: cell-based; settings: red cells, 0.2 mM compound, 2 mM glutathione, two hours at RT
Serratia liquifaciens = test: Bacterial inactivation in leukoreduced PRBC with Erythrosol (Example 5), S. liquifaciens; format: cell-based; settings: red cells, 0.2 mM compound, 2 mM glutathione, two hours at RT
[5] = test system: Duck Hepatitis B Virus (DHBV); test: Viral inactivation in leukoreduced PRBC with Erythrosol (Example 5), DHBV; format: cell-based; settings: red cells, 0.1 mM inactivation compound, 3 mM glutathione, two hours at RT
[6] = test system: Bovine Viral Diarrhea Virus (BVDV); test: Viral inactivation in leukoreduced PRBC with Erythrosol (Example 5), BVDV; format: cell-based; settings: red cells, 0.1 mM inactivation compound, 1 mM glutathione, two hours at RT
Bacilus subtilis = test: Bacterial inactivation in leukoreduced PRBC with Erythrosol (Example 5), B. subtilis; format: cell-based; settings: red cells, 0.2 mM compound, 2 mM glutathione, two hours at RT

O=C(CCNc1c2ccccc2nc2ccccc12)OCCN(CCCl)CCCl [β-alanine, N-(acridin-9-yl), 2-[bis(2-chloroethyl)amino]ethyl ester]
Log inactivation Staphylococcus aureus (Staphylococcus aureus): >5.1 log
Log inactivation Staphylococcus epidermidis [1]: >6.9 log
Log inactivation HSV [2]: >6.0 log
Log inactivation Cell-Associated HIV (Cell-Associated HIV): >6.2 log
Log inactivation Deinococcus radiodurans (Deinococcus radiodurans): >6.0 log
Log inactivation VSIV [3]: 5.7 log
Log inactivation Bluetongue type 11 (Bluetongue type 11 Virus): 6.0 log
Log inactivation Yersinia enterocolitica (Yersinia enterocolitica): 7.4 log
Log inactivation Listeria monocytogenes (Listeria monocytogenes): >7.1 log
Log inactivation Cell-Free HIV (Cell-Free HIV): >6.5 log
Log inactivation Serratia marcescens (Serratia marcescens): 4.1 log
Log inactivation Pseudomonas aeruginosa (Pseudomonas aeruginosa): 4.5 log
Log inactivation RSV [4]: 5.6 log
Log inactivation Eseherichia coli K12 (Escherichia coli K12): 7.4 log
Log inactivation Salmonella choleraesuis (Salmonella choleraesuis): 4.8 log
Log inactivation Serratia liquifaciens (Serratia liquifaciens): 3.8 log
Log inactivation DHBV [5]: >6.3 log
Log inactivation BVDV [6]: >7.3 log
Log inactivation Bacilus subtilis (Bacilus subtilis): >6.3 log
